From ChEMBL document CHEMBL1133074, “2-Methyladenosine-Substituted 2',5'-oligoadenylates: conformations, 2-5A binding and catalytic activities with human ribonuclease L” (Bioorg Med Chem Lett, 2000) come the findings set out here.

Assay [1] in a line: (§1) Relative concentration required to cause 50% degradation of the poly (U) 3'[32P]p5'C3'p.
The target in assay [2] is T1, 2-5A-dependent ribonuclease (Homo sapiens, UniProt Q05823).
T1 sequence (Q05823 whole entry): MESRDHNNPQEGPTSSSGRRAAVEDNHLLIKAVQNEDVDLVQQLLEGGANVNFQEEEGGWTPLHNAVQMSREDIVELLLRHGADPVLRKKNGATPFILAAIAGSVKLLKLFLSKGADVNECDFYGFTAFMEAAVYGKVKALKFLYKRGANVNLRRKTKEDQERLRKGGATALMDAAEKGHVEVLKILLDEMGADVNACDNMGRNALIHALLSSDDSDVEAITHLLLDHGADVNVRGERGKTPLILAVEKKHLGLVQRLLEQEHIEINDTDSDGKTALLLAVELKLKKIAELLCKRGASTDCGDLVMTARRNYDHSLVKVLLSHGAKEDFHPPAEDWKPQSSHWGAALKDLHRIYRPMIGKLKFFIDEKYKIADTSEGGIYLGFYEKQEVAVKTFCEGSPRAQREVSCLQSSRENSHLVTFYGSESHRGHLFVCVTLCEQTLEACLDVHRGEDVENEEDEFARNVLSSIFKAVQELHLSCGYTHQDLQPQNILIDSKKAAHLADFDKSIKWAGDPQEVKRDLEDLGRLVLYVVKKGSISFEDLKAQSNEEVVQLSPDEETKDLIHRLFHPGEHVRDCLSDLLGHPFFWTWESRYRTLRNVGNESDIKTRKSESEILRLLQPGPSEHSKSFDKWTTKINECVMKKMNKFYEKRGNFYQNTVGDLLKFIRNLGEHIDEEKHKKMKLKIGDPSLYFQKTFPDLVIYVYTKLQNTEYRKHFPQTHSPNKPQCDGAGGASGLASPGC
Kind of assay: Activation of purified recombinant human Ribonuclease L by the compound was measured as degradation of [32P]-pC11U2C7.

Assay [3] can be described thus: (§2) Relative concentration required to displace 50% of the p(A2'p)3A3'[32p]p5'Cp.
Assay [4] is described as follows: Ratio of quotient (binding IC50)/(activation EC50 for the poly (U) assay).
Assay [5] concerns the target T1, 2-5A-dependent ribonuclease. The assay can be described thus: Activation of purified recombinant human Ribonuclease L by the compound was measured as degradation of poly (U) 3'[32P]p5'C3'p.
Assay [6] is described as follows: (§3) Relative concentration required to cause 50% degradation of the [32P]-pC11U2C7.
For assay [7], the target named is T1, 2-5A-dependent ribonuclease. The assay can be described thus: Compound was tested for its binding ability, by displacement of p(A2'p)3A3'[32p]p5'Cp from recombinant human ribonuclease L.
The nature of assay [8]: as §2. Type of assay: functional.
A short description of assay [9]: as §1. Type of assay: functional.
Assay [10] in a line: as §3. Type of assay: functional.

One may read the EC50 as the midpoint of the concentration-response curve. One may read the IC50 as the midpoint of a concentration-inhibition curve.

For `Cc1nc(N)c2ncn([C@@H]3O[C@H](COP(=O)(O)O[C@@H]4[C@H](O)[C@@H](COP(=O)(O)O[C@@H]5[C@H](O)[C@@H](COP(=O)(O)OP(=O)(O)OP(=O)(O)O)O[C@H]5n5cnc6c(N)ncnc65)O[C@H]4n4cnc5c(N)ncnc54)[C@@H](O)[C@H]3O)c2n1`, the Crel in assay [1] turned out to be 2; in [3] it was 0.1; in assay [6] it was 1.5. The EC50 amounted to 0.3 nM in [2] and 0.24 nM in assay [5]. Besides, the Rn in [4] came out at 0.06. In addition, the 50% inhibitory concentration (IC50) in [7] was determined as 0.72 nM.
For `Cc1nc(N)c2ncn([C@@H]3O[C@H](COP(=O)(O)O[C@@H]4[C@H](O)[C@@H](COP(=O)(O)O[C@@H]5[C@H](O)[C@@H](COP(=O)(O)O)O[C@H]5n5cnc6c(N)nc(C)nc65)O[C@H]4n4cnc5c(N)nc(C)nc54)[C@@H](O)[C@H]3O)c2n1`, the Crel in assay [1] came out at 107; in assay [3], 146; in assay [6] it was 120. Moreover, the EC50 in assay [2] was 30 nM; in assay [5], 16 nM. Also, the Rn in assay [4] worked out at 1.4. For the same compound, the IC50 in assay [7] is 1060 nM.
As for `Cc1nc(N)c2ncn([C@@H]3O[C@H](COP(=O)(O)O)[C@@H](O)[C@H]3OP(=O)(O)OC[C@H]3O[C@@H](n4cnc5c(N)ncnc54)[C@H](OP(=O)(O)OC[C@H]4O[C@@H](n5cnc6c(N)ncnc65)[C@H](O)[C@@H]4O)[C@@H]3O)c2n1`, the figures for the Crel in assay [1], in assay [3] and in assay [6] were 6, 8 and 2.7, respectively. Moreover, the EC50 came out at 0.7 nM in assay [2] and 0.84 nM in assay [5]. Moreover, the Rn in [4] is 1.4. In addition, the IC50 in [7] was found to be 57 nM.
On to `Cc1nc(N)c2ncn([C@@H]3O[C@H](COP(=O)(O)O[C@@H]4[C@H](O)[C@@H](COP(=O)(O)O[C@@H]5[C@H](O)[C@@H](COP(=O)(O)OP(=O)(O)OP(=O)(O)O)O[C@H]5n5cnc6c(N)nc(C)nc65)O[C@H]4n4cnc5c(N)nc(C)nc54)[C@@H](O)[C@H]3O)c2n1`, for which the Crel came to 31 in assay [1], 15 in assay [3] and 20 in assay [6]. Moreover, the EC50 came to 4 nM in assay [2] and 4.6 nM in [5]. In addition, the Rn in assay [4] amounted to 0.5. In addition, the IC50 in assay [7] turned out to be 105 nM.
Regarding `Cc1nc(N)c2ncn([C@@H]3O[C@H](COP(=O)(O)OP(=O)(O)OP(=O)(O)O)[C@@H](O)[C@H]3OP(=O)(O)OC[C@H]3O[C@@H](n4cnc5c(N)ncnc54)[C@H](OP(=O)(O)OC[C@H]4O[C@@H](n5cnc6c(N)ncnc65)[C@H](O)[C@@H]4O)[C@@H]3O)c2n1`, the Crel in [1] was found to be 5; in [3] it was 3; in assay [6] it was 4. Also, the half-maximal effective concentration (EC50) in assay [2] came out at 0.8 nM; in assay [5], 0.68 nM. Further, the Rn in assay [4] is 0.7. Further, in [7], the IC50 came to 24 nM.
Consider `Cc1nc(N)c2ncn([C@@H]3O[C@H](COP(=O)(O)O[C@@H]4[C@H](O)[C@@H](COP(=O)(O)O[C@@H]5[C@H](O)[C@@H](COP(=O)(O)O)O[C@H]5n5cnc6c(N)ncnc65)O[C@H]4n4cnc5c(N)ncnc54)[C@@H](O)[C@H]3O)c2n1`, for which the EC50 in assay [2] came to 0.2 nM; in assay [5] it was 0.13 nM. Moreover, the figures for the Crel in [8], in assay [9] and in assay [10] were 0.4, 0.9 and 1, respectively. Moreover, the Rn in [4] amounted to 0.4. Also, in [7], the IC50 was determined as 2.6 nM.
Turning to `Nc1ncnc2c1ncn2[C@@H]1O[C@H](COP(=O)(O)O[C@@H]2[C@H](O)[C@@H](COP(=O)(O)O[C@@H]3[C@H](O)[C@@H](COP(=O)(O)O)O[C@H]3n3cnc4c(N)ncnc43)O[C@H]2n2cnc3c(N)ncnc32)[C@@H](O)[C@H]1O`, the Crel in [1], in assay [3] and in [6] was 1 throughout. Besides, the Rn in [4] turned out to be 1.
